In patent US5068325A, “4,5,7,8-tetrahydro-6H-thiazolo[5,4-d]azepines, their preparation and their use as pharmaceutical compositions” (priority 1988, dated 1991):
pIC50, pKi: −log10 of the molar value.

Legend:
[1] = test system: MPTP monkeys; test: post-synaptic dopaminergic activity in MPTP monkeys; format: in vivo, rhesus monkey; conditions: for minimal effective dose: Primates, in Macaca mulatta, im, rhesus monkeys, i.m., read-out: minimum dose (MED) required to alleviate the Parkinson's symptoms
Source text: 6. Determining the post-synaptic dopaminergic activity in MPTP monkeys (Modified Method of R. S. Burns et al., Proc. Natl. Acad. Sci. 80. 4546 (1983))
The neurotoxin 1-methyl-4-phenyl-1,2,3,6- tetrahydro-pyridine (MPTP) produces in humans and monkeys an irreversible syndrome which in its clinical, pathological, biochemical and pharmacological appearance is very similar to idiopathic Parkinson's disease (Markey et al., Nature 311, 464 (1984)). The reason for this similarity is that MPTP selectively destroys those dopaminergic nerve cells in the substantia nigra of the brain which are also lost by degenerative processes in Parkinson's disease. There is even some discussion that MPTP or an MPTP-like substance might be formed in the body and trigger Parkinson's disease (S. H. Snyder, Nature 311, 514 (1984)). Possibly because of the specific MPTP metabolism, the clinical formation of the MPTP-induced Parkinson syndrome has hitherto been detected only in humans and monkeys. The MPTP model produced in the rhesus monkey is therefore exceptionally suitable for testing the activity of post-synaptically acting dopamine agonists. For this purpose, rhesus monkeys were given MPTP in overall doses of up to about 6 mg/kg of body weight, until the following symptoms appeared: The animals were akinetic and unable to take water and food.
It is clear that with the compounds according to the invention there is no sedative effect or ataxia at a dosage which is several times the MED, which can be put down to the absence of a corresponding activity mediated by the α2- receptors.

[2] = biological target: T1, alpha-2 receptors (Rattus norvegicus, UniProt P22909); test: affinity for alpha-2 receptors by displacement experiments with [3H]-clonidine (rat cortex membranes); format: binding; conditions: read-out: α2-IC50
T1 sequence (P22909 1-465): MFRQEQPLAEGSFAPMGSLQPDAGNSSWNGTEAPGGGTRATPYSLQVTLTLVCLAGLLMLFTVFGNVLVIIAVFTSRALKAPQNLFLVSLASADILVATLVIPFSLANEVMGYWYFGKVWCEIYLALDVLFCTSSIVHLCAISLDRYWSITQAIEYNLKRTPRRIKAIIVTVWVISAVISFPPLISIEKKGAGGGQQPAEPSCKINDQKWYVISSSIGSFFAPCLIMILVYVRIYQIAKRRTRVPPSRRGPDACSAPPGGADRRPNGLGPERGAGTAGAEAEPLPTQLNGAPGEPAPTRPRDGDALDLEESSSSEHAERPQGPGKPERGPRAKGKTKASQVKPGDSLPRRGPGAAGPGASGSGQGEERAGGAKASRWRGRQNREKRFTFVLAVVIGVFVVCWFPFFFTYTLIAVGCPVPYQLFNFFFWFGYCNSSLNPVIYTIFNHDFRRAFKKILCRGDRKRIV

[3] = test system: hypersensitive dopamine receptor; test: motility triggering in the mouse treated 24 hours earlier with reserpine; format: in vivo
Method: This test determines predominantly agonistic effects on the hypersensitive dopamine receptor.
Male mice are treated 24 hours before the experiment with 5 mg/kg i.p. reserpine. The animals are kept at 25°-30° C. and treated three times with 2 ml of a 5% glucose solution in tyrode s.c. (the first time when the reserpine is given, the second time in the evening of the pre-treatment day and the third time on the morning of the test day).
[…] (The injection volume is usually 0.1 ml/10 g of body weight). 30 minutes later the groups of animals are placed in the observation cages (measuring 42 x 24 x 8 cm) and fitted with an infrared lightbeam in order to measure their activity. The value measured is the frequency with which a group of 6 mice pass through the infra-red beam within 5 minutes ("running pulses/5 minutes"; mean at n=3; mean±s.e.m. at n=6).
3 to 6 groups are tested for each substance.

[4] = biological target: dopamine D2-receptors (Rattus norvegicus, UniProt P61169); test: affinity for dopamine D2-receptors by displacement experiments with [3H]-spiperone (rat striatum membranes); format: binding; conditions: for pKi: [3H]-spiperone, high-affinity form of the dopamine receptor; for α2-IC50 / D2-Ki: relative affinity for dopamine-D2 receptors compared with α2-adrenoceptors, the higher, the higher the D2/α2 selectivity
Sequence of dopamine D2-receptors (P61169 whole entry): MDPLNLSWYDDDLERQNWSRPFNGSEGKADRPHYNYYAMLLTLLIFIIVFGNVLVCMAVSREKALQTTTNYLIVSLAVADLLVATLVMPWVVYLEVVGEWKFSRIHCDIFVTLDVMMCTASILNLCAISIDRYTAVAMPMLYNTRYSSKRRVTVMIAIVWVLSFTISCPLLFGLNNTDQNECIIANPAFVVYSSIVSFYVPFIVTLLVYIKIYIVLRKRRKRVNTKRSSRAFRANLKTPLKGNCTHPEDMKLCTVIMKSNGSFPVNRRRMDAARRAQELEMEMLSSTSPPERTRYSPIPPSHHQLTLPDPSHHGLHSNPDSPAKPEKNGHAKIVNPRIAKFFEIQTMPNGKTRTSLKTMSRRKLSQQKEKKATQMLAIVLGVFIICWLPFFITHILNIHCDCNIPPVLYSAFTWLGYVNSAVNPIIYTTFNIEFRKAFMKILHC

Row | pIC50 [2] | pKi [4] | α2-IC50 / D2-Ki [4] | Structure (SMILES) | further results
1 | 6.52 | 9.14 | 410 | Nc1nc2c(s1)CCN(CC=Cc1cccc(OCc3ccccc3)c1)CC2 [Example 4y, 2-Amino-6-(3-(3-benzyloxy-phenyl)allyl)-4,5,7,8-tetrahydro-6H-thiazolo[5,4-d]azepine] | –
2 | 5.51 | 9.04 | 3370 | Nc1nc2c(s1)CCN(CC=Cc1nccc3ccccc13)CC2 [Example 7a, 2-Amino-6-(3-(1-isoquinolinyl)allyl)-4,5,7,8-tetrahydro-6H-thiazolo[5,4-d]azepine] | –
3 | 5.52 | 8.00 | 303 | Nc1nc2c(s1)CCN(CC=Cc1ccccc1N1CCCCC1)CC2 [Example 11p, 2-Amino-6-(3-(2-(1-piperidino)phenyl)-2-propen-1-yl)-4,5,7,8-tetrahydro-6H-thiazolo[5,4-d]azepine] | –
4 | 6.05 | 8.77 | 529 | Nc1nc2c(s1)CCN(CC=Cc1cc3ccccc3cn1)CC2 [Example 24a, 2-Amino-6-(3-(3-isoquinolinyl)allyl)-4,5,7,8-tetrahydro-6H-thiazolo[5,4-d]azepine] | –

More lines, now with the values behind:

Row | Structure (SMILES) | pIC50 [2] | pKi [4] | α2-IC50 / D2-Ki [4] | further results
5 | C=CCN1CCc2nc(N)sc2CC1 [Compound A, reference compound] | 7.62 | 8.30 | 4.8 | Duration of activity ([1]; 0.03 mg/kg i.m. (MED)): 0.5 to 1 h; effect on MPTP-induced symptoms ([1]; MPTP-treated rhesus monkeys): temporary cessation of this phenomenon; minimal effective dose [1]: 0.03 mg/kg; running pulses every 5 minutes ([3]; 3 mg/kg s.c.): 50 running pulses every 5 minutes; ED (50 running pulses/5 min) ([3]; Mus musculus, sc, reserpine-treated mice, s.c., read-out: DLi50 (dosage resulting in 50 running pulses every 5 minutes)): 3 mg/kg
6 | Nc1nc2c(s1)CCN(Cc1ccc(Cl)cc1)CC2 [Compound B, reference compound] | 6.39 | 7.89 | 31.5 | Duration of activity ([1]; 0.15 mg/kg i.m.): 5 h; running pulses every 5 minutes ([3]; 5 mg/kg s.c.): 22 running pulses every 5 minutes; effectiveness in motility triggering compared with compound A ([3]; reserpine-treated mice, s.c.): less effective than compound A
7 | Nc1nc2c(s1)CCN(CC=Cc1cccc3ccccc13)CC2 [Example 4t, 2-Amino-6-(3-(1-naphthyl)allyl)-4,5,7,8-tetrahydro-6H-thiazolo[5,4-d]azepine] | 6.34 | 8.51 | 148 | –
8 | N#Cc1ccc(C=CCN2CCc3nc(N)sc3CC2)cc1 [Example 14b, 2-Amino-6-(3-(4-cyano-phenyl)allyl)-4,5,7,8-tetrahydro-6H-thiazolo[5,4-d]azepine] | 6.30 | 8.59 | 192 | Duration of activity ([1]; 0.05 mg/kg i.m. (MED)): 2.0 to 5 h; Side effects ([1]; 0.05 mg/kg i.m. (MED)): none; Duration of activity ([1]; 0.50 mg/kg i.m.): > 5 h; minimal effective dose [1]: 0.05 mg/kg
